Laboratory results published in US9895549B2, “On-demand drug release using magneto-electric nanoparticles” (priority 2012, dated 2018).

Tested on: SKOV-3 cells
Experiment: Trypan-blue cell viability after field treatment, SKOV-3
Type: cell-based, human
Settings: PTX drug +, no field, 24-hour
Excerpt: After we confirmed that the drug-loaded MENs in the vicinity of the cancer cells indeed acted as a field-controlled valve to let the drug in (due to the effective nano-electroporation effect according to our hypothesis), we studied the viability of the cancer cells for different combinations of the drug and the carrier after the drug penetrated through the cell membrane. (Here, maintaining the remote field at 30 Oe provided the specificity to the cancer cells or, in other words, ensured that the healthy cells were intact.) The confocal images that were obtained after a 24-hour field treatment are in FIG. 13. The three key combinations of the carrier included (i) no particle, (ii) HER-2-GMO-MENs (Note: Here, HER-2 stands for the HER-2 biomarker antibody), and (iii) GMO-MENs, respectively. Accordingly, the three images (from left to right) in FIG. 13A show the morphology of the cancer cells after 24-hour treatment by (i) the free drug (with no particle carrier), (ii) drug-HER-2-GMO-MENs with no field applied, and (iii) drug-GMO-MENs in a 30-Oe d.c. field. The three control images in FIG. 13B show the morphology of the cancer cells after the 24-hour treatment by the same three combinations of the carrier with no drug present. In addition, we conducted the confocal imaging and the trypan-blue cell viability tests on both SKOV-3 and HOMEC cell lines after 24- and 36-hour field treatment. […]

CC(=O)O[C@H]1C(=O)[C@@]2(C)[C@H]([C@H](OC(=O)c3ccccc3)[C@]3(O)C[C@H](OC(=O)[C@H](O)[C@@H](NC(=O)c4ccccc4)c4ccccc4)C(C)=C1C3(C)C)[C@]1(OC(C)=O)CO[C@@H]1C[C@@H]2O [FREE, Paclitaxel]
Percentage Cells Alive: 86 ± 8.8%
